Measured values from patent publication US9512141B2, “Pyrazine derivatives as CB2 receptor agonists” (Hoffmann-La Roche Inc., priority 2012, dated 2016).
Where two headings read alike, the source gives them in different places.

Assays:
human CB2 receptors = human CB2 receptors (Homo sapiens (Human), UniProt P34972); experiment: cAMP assay (functional), CHO cells expressing human CB2 receptors; format: cell-based
Method: (§1) CHO cells expressing human CB1 or CB2 receptors are seeded 17-24 hours prior to the experiment 50.000 cells per well in a black 96 well plate with flat clear bottom (Corning Costar #3904) in DMEM (Invitrogen No. 31331), 1×HT supplement, with 10% fetal calf serum and incubated at 5% CO2 and 37° C. in a humidified incubator. The growth medium was exchanged with Krebs Ringer Bicarbonate buffer with 1 mM IBMX and incubated at 30° C. for 30 min. Compounds were added to a final assay volume of 100 μl and incubated for 30 min at 30° C. Using the cAMP-Nano-TRF detection kit the assay (Roche Diagnostics) was stopped by the addition of 50 μl lysis reagent (Tris, NaCl, 1.5% Triton X100, 2.5% NP40, 10% NaN3) and 50 μl detection solutions (20 μM mAb Alexa700-cAMP 1:1, and 48 μM Ruthenium-2-AHA-cAMP) and shaken for 2 h at room temperature. The time-resolved energy transfer is measured by a TRF reader (Evotec Technologies GmbH), equipped with a ND:YAG laser as excitation source. The plate is measured twice with the excitation at 355 nm and at the emission with a delay of 100 ns and a gate of 100 ns, total exposure time 10 s at 730 (bandwidth 30 nm) or 645 nm (bandwidth 75 nm), respectively. The FRET signal is calculated as follows: FRET=T730-Alexa730-P (T645-B645) with P=Ru730-B730/Ru645-B645, where T730 is the test well measured at […], T645 is the test well measured at 645 nm, B730 and B645 are the buffer controls at 730 nm and 645 nm, respectively. cAMP content is determined from the function of a standard curve spanning from 10 μM to 0.13 nM cAMP.
(§2) EC50 values were determined using Activity Base analysis (ID Business Solution, Limited). The EC50 values for a wide range of cannabinoid agonists generated from this assay were in agreement with the values published in the scientific literature.

human CB1 receptors = human CB1 receptors (Homo sapiens (Human), UniProt P21554); experiment: cAMP assay (functional), CHO cells expressing human CB1 receptors; format: cell-based
Method: as §1, §2

[1] = functional cAMP assay, CHO cells expressing human CB2, read-out: human CB2 EC50
[2] = functional cAMP assay, CHO cells expressing human CB1, read-out: human CB1 EC50

Chain of human CB2 receptors (P34972 whole entry): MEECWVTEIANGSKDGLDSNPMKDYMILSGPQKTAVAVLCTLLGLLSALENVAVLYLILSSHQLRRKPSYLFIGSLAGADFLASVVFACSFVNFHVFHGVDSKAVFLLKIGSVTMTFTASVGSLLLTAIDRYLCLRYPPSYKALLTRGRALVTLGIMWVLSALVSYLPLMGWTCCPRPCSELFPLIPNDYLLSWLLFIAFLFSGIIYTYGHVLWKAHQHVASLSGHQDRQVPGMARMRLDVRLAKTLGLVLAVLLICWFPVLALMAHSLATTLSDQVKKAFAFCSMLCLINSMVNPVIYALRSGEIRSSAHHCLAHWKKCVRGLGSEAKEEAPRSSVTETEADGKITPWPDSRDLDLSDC
Chain of human CB1 receptors (P21554 whole entry): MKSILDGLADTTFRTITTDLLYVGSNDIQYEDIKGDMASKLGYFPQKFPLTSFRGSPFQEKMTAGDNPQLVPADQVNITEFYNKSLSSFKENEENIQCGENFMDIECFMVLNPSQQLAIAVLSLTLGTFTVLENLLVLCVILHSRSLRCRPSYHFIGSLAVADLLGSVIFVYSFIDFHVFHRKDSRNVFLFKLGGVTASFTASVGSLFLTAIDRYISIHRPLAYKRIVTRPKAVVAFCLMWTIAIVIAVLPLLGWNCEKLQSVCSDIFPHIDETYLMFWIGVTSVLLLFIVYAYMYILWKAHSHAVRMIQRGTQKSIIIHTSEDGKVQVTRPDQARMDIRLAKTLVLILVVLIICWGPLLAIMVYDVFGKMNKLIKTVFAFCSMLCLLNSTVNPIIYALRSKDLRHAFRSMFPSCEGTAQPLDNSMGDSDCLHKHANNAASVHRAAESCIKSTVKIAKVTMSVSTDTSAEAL

Structure (SMILES) | EC50 (human CB2 receptors) [nM] | EC50 (human CB1 receptors) [nM] | EC50 (human CB2 receptors; [1]) [nM] | EC50 (human CB1 receptors; [2]) [nM]
NC(=O)C1CC2(CC2)CN1C(=O)c1cnc(N2CC(F)(F)C2)c(OCC2CC2)n1 (racemic) [Example 40, (±)-5-[6-(Cyclopropylmethoxy)-5-(3,3-difluoroazetidin-1-yl)pyrazine-2-carbonyl]-5-azaspiro[2.4]heptane-6-carboxamide] | 39 | > 10000 | – | –
NC(=O)C1CCCCN1C(=O)c1cnc(N2CC(F)(F)C2)c(OCC2CC2)n1 (single isomer, unassigned; (-)) [Example 36, (−)-1-[6-Cyclopropylmethoxy-5-(3,3-difluoro-azetidin-1-yl)-pyrazine-2-carbonyl]-piperidine-2-carboxylic acid amide] | – | – | 217 | > 10000
NC(=O)C1CSCCN1C(=O)c1cnc(N2CC(F)(F)C2)c(OCC2CC2)n1 (single isomer, unassigned; (-)) [Example 37, (−)-4-[6-Cyclopropylmethoxy-5-(3,3-difluoro-azetidin-1-yl)-pyrazine-2-carbonyl]-thiomorpholine-3-carboxylic acid amide] | – | – | 308 | > 10000
CC1(C)CC(C(N)=O)N(C(=O)c2cnc(N3CC(F)(F)C3)c(OCC3CC3)n2)C1 (single isomer, unassigned; (-)) [Example 38, (−)-1-[6-Cyclopropylmethoxy-5-(3,3-difluoro-azetidin-1-yl)-pyrazine-2-carbonyl]-4,4-dimethyl-pyrrolidine-2-carboxylic acid amide] | – | – | 1.4 | > 10000
CC1(C)CC(C(N)=O)N(C(=O)c2cnc(C3CC3)c(OCC3CC3)n2)C1 (single isomer, unassigned; (-)) [Example 39, (−)-1-(5-Cyclopropyl-6-cyclopropylmethoxy-pyrazine-2-carbonyl)-4,4-dimethyl-pyrrolidine-2-carboxylic acid amide] | – | – | 10.3 | > 10000
C[C@@H]1CCCN1C(=O)c1cnc(C2CC2)c(OCC2CC2)n1 [Example 1, (5-Cyclopropyl-6-cyclopropylmethoxy-pyrazin-2-yl)-((R)-2-methyl-pyrrolidin-1-yl)-methanone] | – | – | 57.3 | > 10000
C[C@@H]1CCCN1C(=O)c1cnc(N2CC(F)(F)C2)c(OCC2CC2)n1 [Example 2, [6-Cyclopropylmethoxy-5-(3,3-difluoro-azetidin-1-yl)-pyrazin-2-yl]-((R)-2-methyl-pyrrolidin-1-yl)-methanone] | – | – | 4.9 | > 10000
COCCN(C(=O)c1cnc(N2CC(F)(F)C2)c(OCC2CC2)n1)C(C)(C)C [Example 3, 6-Cyclopropylmethoxy-5-(3,3-difluoro-azetidin-1-yl)-pyrazine-2-carboxylic acid tert-butyl-(2-methoxy-ethyl)-amide] | – | – | 4 | > 10000
CC1(C)COCCN1C(=O)c1cnc(N2CC(F)(F)C2)c(OCC2CC2)n1 [Example 4, [6-Cyclopropylmethoxy-5-(3,3-difluoro-azetidin-1-yl)-pyrazin-2-yl]-(3,3-dimethyl-morpholin-4-yl)-methanone] | – | – | 4.3 | > 10000
C[C@H]1CCCN1C(=O)c1cnc(N2CC(F)(F)C2)c(OCC2CC2)n1 [Example 5, [6-Cyclopropylmethoxy-5-(3,3-difluoro-azetidin-1-yl)-pyrazin-2-yl]-((S)-2-methyl-pyrrolidin-1-yl)-methanone] | – | – | 81.7 | > 10000
O=C(c1cnc(N2CC(F)(F)C2)c(OCC2CC2)n1)N1CC2CC1CO2 (stereo not drawn) [Example 6, [6-Cyclopropylmethoxy-5-(3,3-difluoro-azetidin-1-yl)-pyrazin-2-yl]-2-oxa-5-aza-bicyclo[2.2.1]hept-5-yl-methanone] | – | – | 257 | > 10000
CN(C(=O)c1cnc(N2CC(F)(F)C2)c(OCC2CC2)n1)C(C)(C)C [Example 7, 6-Cyclopropylmethoxy-5-(3,3-difluoro-azetidin-1-yl)-pyrazine-2-carboxylic acid tert-butyl-methyl-amide] | – | – | 3.2 | > 10000
